According to US20090098195A1 (priority 2004, published 2009):
Several values for one entry are separate records, joined by “and”; a condition that tells them apart may be missing. Identical values can stand only once. Like-named read-outs stand apart in the source and are kept apart here.

Columns and labels:
[1] = type: binding; conditions: LacCer monolayer, QCM
[2] = type: binding; conditions: GalCer monolayer, QCM
[3] = tested on: influenza virus A/PR/8/34 (H1N1); type: cell-based; conditions: liposomes containing the peptide; egg PC concentration of 1 mM (peptide concentration: 0.15 mM); vs liposome without peptide
[4] = type: binding; conditions: GM3 monolayer, QCM
[5] = type: binding; conditions: 6′GM3 monolayer, QCM
[6] = type: binding; conditions: QCM; data not shown

| Substance | Kd [1] [µM] | Δmmax (maximum binding amount) [1] [ng cm^−2] | Kd [2] [µM] | Δmmax (maximum binding amount) [2] [ng cm^−2] | percent inhibition of infection [3] [%] | Kd [4] [µM] | Δmmax (maximum binding amount) [4] | Kd [5] [µM] | Δmmax (maximum binding amount) [5] [ng cm^−2] | binding to glycosphingolipids [6] |
| --- | --- | --- | --- | --- | --- | --- | --- | --- | --- | --- |
| GWWYKGRARPVSAVA [c01-peptide, H-GWWYKGRARPVSAVA-NH2] | 4.8 ± 1.6 | 74 ± 5.2 | 13 ± 3.3 | 64 ± 4.5 | 83 | 1.8 | 46 ng cm^−2 and 46 ± 2.4 ng cm^−2 | 4 ± 1.1 | 93 ± 4.6 |  |
| ARLSPTMVHPRGAQP [A1 peptide, reference compound] |  |  |  |  | 76 |  |  |  |  |  |
| H-AETVESCLAKPHTEN-NH2 [control peptide] |  |  |  |  |  |  |  |  |  | bound to none of the glycosphingolipids |
| RAVWRHSVATPSHSV [c03-peptide, H-RAVWRHSVATPSHSV-NH2] | 5.9 ± 1.2 | 37 ± 1.8 |  | <3 | 94 | 0.34 | 11 ng cm^−2 and 11 ± 0.1 ng cm^−2 | 7 ± 2.2 | 56 ± 3.1 |  |
